Patent US20030212014A1 (priority 2000, published 2003)

Assays:
[1] = system: AMP-activated protein kinase (AMPK); assay: AMP-activated protein kinase activity in HUVEC incubated with AICAR; type: cell-based, human
Description: The enzyme was assayed in a reaction mixture containing either no AMP or 0.2 mM 5′-AMP. The difference in the activity is the AMP-activated kinase activity. […] This indicates the presence of AMPK and AMPKK in HUVEC.
One of the major ATP users, the Na^+/K^+pump, was investigated. The activity of this pump was tested by measuring the uptake of radioactive rubidium in the absence and presence of ouabain, an Na^+/K^+pump inhibitor. The difference in uptake, which is referred to as ouabain-sensitive Rb^+uptake, is the Na^+/K^+pump activity. […] When the ouabain sensitive component was calculated, no ,difference was seen between the two incubations, (2.11±0.9 and 3.3±0.9 pmol/min/mg protein), thus leading us to believe that no change in Na^+/K^+pump activity had occurred. […] The AMPK activity remained high with a longer incubation time up to 120 minutes.

[2] = system: human and bovine retinal pericytes; assay: Palmitate-induced apoptosis in retinal pericytes (TUNEL staining); type: cell-based
Description: Apoptosis was induced by incubating the cells with a medium containing 0-0.5 mM palmitic acid for 3 days. Apoptotic cells were determined by conventional TUNEL staining. Ceramide and DAG levels were measured the by diacylgycerol kinase method using 32P-ATP.

[3] = system: muscle ACC activity and malonyl CoA; assay: ACC activity and malonyl CoA in muscle two hours after AICAR injection; type: in vivo, rat; conditions: 250 mg/kg
high-fat fed (HFF) rats [4] = assay: Acute effects of a single AICAR injection in high-fat fed (HFF) rats; type: in vivo, rat
Description: Plasma parameters: This experiment was performed on HFF rats under conscious conditions following 5-7 hours of fasting. After catheters were connected to blood sampling syringes, the animals were allowed to rest for 40-50 min. Two blood samples were taken 20 min. apart, constituting the basal samples (time 0). […] Blood samples were collected at 30, 60, 90 and 120 min. after the injection. After the last sample was taken, the animals were euthanized. […] Tissue parameters: The glycogen and triglyceride content of two types of skeletal muscle and liver at the end of the experiment were determined (Table 9, FIG. 27).

high-fat fed (HFF) rats [5] = assay: Euglycemic hyperinsulinemic clamp in HFF rats 24 h after AICAR injection; type: in vivo, rat
Description: They were then returned to their cages and given a high-fat meal. […] To avoid the possible effects of a reduced caloric intake, the HFF-Con animals were pair-fed with HFF-AIC rats. 24 h after the injection, and after a 5-7 h fasting period, the rats were submitted to an euglycemic hyperinsulinemic clamp, to determine the whole body insulin sensitivity.

juvenile rats = assay: Chronic intermittent AICAR treatment of juvenile rats; type: in vivo, rat
Description: This dose distributed in the extracellular space of the rat (approx. 20 ml/100g b. w.) yields a concentration in the extracellular space of approximately 5 mM.
Referring to FIG. 19, it can be seen that food intake was diminished by approximately 25% over the first 24 hrs following each injection. The rats appear to compensate by eating more on the following day. […] Cumulative net food intake was diminished only modestly (about 3%) during all long-term studies.
These include the GLUT 4 glucose transporter, hexokinase and various mitochondrial enzymes including cytochrome C oxidase and citrate synthase. […] Also we found no increase in muscle glycogen.

HUVEC [6] = assay: Serine incorporation into ceramide in HUVEC; type: cell-based, human; conditions: 30 mM glucose + AICAR, 24 hr
Description: To assess whether alterations in ceramide contributed to these events, and particularly the decrease in membrane potential, we attempted to measure ceramide content. Ceramide was not detectable in HUVEC incubated with either 5 or 30 mM glucose. […] Consistent with these findings, we found no increase in serine incorporation into ceramide, (presumably a measure of de novo synthesis) in cells incubated for 24 hr in 30 vs 5 mM glucose.

HUVEC [7] = assay: HUVEC metabolism after 16 hrs incubation with 30 mM glucose; type: cell-based, human; conditions: 1 mM AICAR in 30 mM glucose
Description: Incubation of HUVEC with 30 mM glucose for 16 hrs decreased free fatty oxidation by 50% (FIG. 7A) and increased free fatty acid incorporation into diacylglycerol (DAG) (i.e., esterification) by 40% (FIG. 7B). These changes were accompanied by a significant decline in mitochondria membrane potential (FIG. 7C).

[8] = HFF rats, 250 mg/kg s.c., vs HFF-Con
[9] = clamp 24 h after 250 mg/kg AICAR
[10] = 250 mg/kg, 3 days/wk over 106 days
[11] = 12-week study period, not statistically significant

NC(=O)c1ncn([C@@H]2O[C@H](CO)[C@@H](O)[C@H]2O)c1N [AICAR, 5-aminoimidizole-4-carboxamide riboside]
AMP-activated kinase activity ([1]; 0.2 mM AICAR, 30 minutes, HUVEC): 15.8±0.4 pmol/min/mg protein
AMP-activated kinase activity ([1]; 0.5 mM AICAR, 30 minutes, HUVEC): 22.5±0.3 pmol/min/mg protein
AMP-activated kinase activity ([1]; 2 mM AICAR, 30 minutes, HUVEC (concentration series)): 30.9±0.2 pmol/min/mg protein
AMP-activated kinase activity ([1]; 2 mM AICAR, at 30 minutes (time course)): 30.8 pmol/min/mg protein
AMP-activated kinase activity ([1]; 2 mM AICAR, at 60 minutes (time course)): 31.5 pmol/min/mg protein
AMP-activated kinase activity ([1]; 2 mM AICAR, at 120 minutes (time course)): 32.3 pmol/min/mg protein
apoptotic cells (TUNEL) ([2]; 0.5 mM palmitate + 1 mM AICAR, 3 days): 10±2%
decrease in apoptosis ([2]; 1 mM AICAR vs 0.5 mM palmitate alone): 50%
ACC activity in muscle [3]: did not depress ACC significantly
malonyl CoA levels in muscle [3]: no effect
changes in tissue triglyceride content (high-fat fed (HFF) rats [4]; 2 h after the injection): not significant
increase in glycogen content in white muscle (high-fat fed (HFF) rats [4]; 2 h after the injection): 16%
reduction in liver glycogen (high-fat fed (HFF) rats [4]; 2 h after the injection): 52%
duration of decrease in plasma glucose (high-fat fed (HFF) rats [4]; HFF rats, 250 mg/kg s.c.): at least 60 minutes
plasma FFA (high-fat fed (HFF) rats [4]; HFF rats, 250 mg/kg s.c.): remained unchanged
time to decrease in plasma glucose (high-fat fed (HFF) rats [4]; HFF rats, 250 mg/kg s.c.): ≤ 30 min
plasma glucose (high-fat fed (HFF) rats [4]; HFF rats, 250 mg/kg s.c., 30-120 min post-injection): decrease
plasma glycerol (high-fat fed (HFF) rats [4]; [8]): increase
plasma triglyceride levels (high-fat fed (HFF) rats [4]; [8]): decrease
plasma insulin (high-fat fed (HFF) rats [4]; HFF rats, 250 mg/kg s.c., vs saline): decrease
levels of muscle triglycerides or long chain fatty acyl CoA (LCFACoA) (high-fat fed (HFF) rats [5]; after clamp): no significant change
decrease in liver malonyl-CoA (high-fat fed (HFF) rats [5]; after clamp, vs HFF-Con): 21%
reduction of liver triglycerides accumulation (high-fat fed (HFF) rats [5]; after clamp, vs HFF-Con): 33%
food eaten overnight (high-fat fed (HFF) rats [5]; after single 250 mg/kg s.c. injection, high-fat meal): minor reduction
reduction of malonyl-CoA in red muscle (high-fat fed (HFF) rats [5]; after the clamp, vs HFF-Con): 44%
basal plasma glucose (hyperglycemia caused by high-fat feeding) (high-fat fed (HFF) rats [5]; basal state, 24 h after AICAR): decreased the hyperglycemia
other basal plasma parameters (insulin, FFA, triglycerides) (high-fat fed (HFF) rats [5]; basal state, vs HFF-Con): did not alter
Rd (high-fat fed (HFF) rats [5]; [9]): slight but not significant increase
increase in glucose infusion rate (GIR) (high-fat fed (HFF) rats [5]; [9]): 50%
HGO under insulin (high-fat fed (HFF) rats [5]; clamp 24 h after 250 mg/kg AICAR, p>0.05 vs. Chow): close to the normal value
increase in Rg' (rate of glucose uptake) in white muscle (high-fat fed (HFF) rats [5]; clamp 24 h after AICAR): 79%
Rg' in red muscle (high-fat fed (HFF) rats [5]; clamp 24 h after AICAR, p=0.085): tendency of increased
insulin-stimulated glucose incorporation into glycogen (high-fat fed (HFF) rats [5]; white and red muscle): significantly increased
decrease in food intake over the first 24 hrs following each injection (juvenile rats; 250 mg/kg 3 times/week, chow diet): approximately 25%
hepatic enlargement (juvenile rats; 250 mg/kg intermittent regimen): no hepatic enlargement
hepatocellular damage, morphologically (light microscope) (juvenile rats; 250 mg/kg intermittent regimen): no evidence of hepatocellular damage
decrease in mass of intra-abdominal (retroperitoneal, mesenteric, epididymal) fat depots (juvenile rats; 250 mg/kg s.c. M, W, F for 25 days): 20-40%
GLUT 4, UCP3, cytochrome C oxidase (RT-PCR) and citrate synthase activity in muscle (juvenile rats; [10]): no changes
muscle glycogen (juvenile rats; [10]): no increase
weights of the heart, liver or other organs (juvenile rats; 250 mg/kg, at 25 days): no differences
muscle mass (juvenile rats; 250 mg/kg, at 106 days): increase in muscle mass is suggested
decrease in food intake (juvenile rats; [11]): 3-4%
weight gain less than control (juvenile rats; [11]): 32 g
decrease in plasma triglycerides (juvenile rats; 25 days treatment, 250 mg/kg): 40%
plasma leptin (juvenile rats; 25 days treatment, 24 hrs following the last injection): significantly diminished
decrease in cumulative net food intake (juvenile rats; all long-term studies): about 3%
glucose and insulin levels during an oral glucose tolerance test (juvenile rats; chronic AICAR treatment): lower
plasma insulin levels (juvenile rats; chronic AICAR treatment): significantly diminished
tolerability / gross toxicity (juvenile rats; rat, in vivo, sc, 250 mg/kg): without evidence of gross toxicity
serine incorporation into ceramide (HUVEC [6]): 9.0±1.2
decline in mitochondria membrane potential caused by 30 mM glucose (HUVEC [7]): prevented all these changes
decrease in free fatty acid oxidation caused by 30 mM glucose (HUVEC [7]): prevented all these changes
increase in free fatty acid incorporation into diacylglycerol caused by 30 mM glucose (HUVEC [7]): prevented all these changes
